Like-named read-outs stand apart in the source and are kept apart here.

In one test the target is KDR (Homo sapiens (Human), UniProt P35968). Nature of the test: KDR enzyme assay (CisBio HTRF kinEASE). Type of test: biochemical. The following applies: ATP at Km.
The target of another test is RET (Homo sapiens (Human), UniProt P07949). In words: RET enzyme assay (CisBio HTRF kinEASE). Type of test: biochemical. The following applies: for IC50: ATP at Km.
The next test deals with RET^V804M (Homo sapiens (Human), UniProt P07949, V804M). In words: RET^V804M enzyme assay. Type of test: biochemical.
Test [1] deals with BaF3 cell lines expressing KIF5B-RET (Homo sapiens, UniProt P07949). It counts as cell-based. The settings on record: read-out: RET Cell IC50.
Description: (§1) The system originally developed by Daley and Baltimore^16 was used, whereby IL3-dependent BaF3 cells are modified to express an activated recombinant kinase. Following removal of IL3, the modified cells are dependent on the activity of the recombinant kinase for survival and proliferation. […] Following incubation of the cells for 48 hours at 37° C. in a humidified 5% CO2 atmosphere, viability was determined by addition of 10 μL CellTiter-Glo reagent (Promega) and measurement of luminescence.
In a further test the test system is RET^V804M Cell. In words: BaF3 cell assay, RET^V804M (CellTiter-Glo viability). The settings on record: Mus musculus, RET^V804M cells, 48 hours. Type of test: cell-based.
The test system of test [2] is Non-modified BaF3 cells (WT). Nature of the test: BaF3 cell assay, non-modified (WT) cells with IL3. The settings on record: Mus musculus, BaF3, 48 h, read-out: BaF3 IC50.
Description: as §1
Test [3] relates to BaF3 cell lines expressing KDR. Nature of the test: BaF3 cell assay, KDR (CellTiter-Glo viability). Type of test: cell-based. The following applies: Mus musculus, BaF3 cells expressing KDR, 48 hours.
Description: as §1

Sequence of KDR (P35968 20-1356): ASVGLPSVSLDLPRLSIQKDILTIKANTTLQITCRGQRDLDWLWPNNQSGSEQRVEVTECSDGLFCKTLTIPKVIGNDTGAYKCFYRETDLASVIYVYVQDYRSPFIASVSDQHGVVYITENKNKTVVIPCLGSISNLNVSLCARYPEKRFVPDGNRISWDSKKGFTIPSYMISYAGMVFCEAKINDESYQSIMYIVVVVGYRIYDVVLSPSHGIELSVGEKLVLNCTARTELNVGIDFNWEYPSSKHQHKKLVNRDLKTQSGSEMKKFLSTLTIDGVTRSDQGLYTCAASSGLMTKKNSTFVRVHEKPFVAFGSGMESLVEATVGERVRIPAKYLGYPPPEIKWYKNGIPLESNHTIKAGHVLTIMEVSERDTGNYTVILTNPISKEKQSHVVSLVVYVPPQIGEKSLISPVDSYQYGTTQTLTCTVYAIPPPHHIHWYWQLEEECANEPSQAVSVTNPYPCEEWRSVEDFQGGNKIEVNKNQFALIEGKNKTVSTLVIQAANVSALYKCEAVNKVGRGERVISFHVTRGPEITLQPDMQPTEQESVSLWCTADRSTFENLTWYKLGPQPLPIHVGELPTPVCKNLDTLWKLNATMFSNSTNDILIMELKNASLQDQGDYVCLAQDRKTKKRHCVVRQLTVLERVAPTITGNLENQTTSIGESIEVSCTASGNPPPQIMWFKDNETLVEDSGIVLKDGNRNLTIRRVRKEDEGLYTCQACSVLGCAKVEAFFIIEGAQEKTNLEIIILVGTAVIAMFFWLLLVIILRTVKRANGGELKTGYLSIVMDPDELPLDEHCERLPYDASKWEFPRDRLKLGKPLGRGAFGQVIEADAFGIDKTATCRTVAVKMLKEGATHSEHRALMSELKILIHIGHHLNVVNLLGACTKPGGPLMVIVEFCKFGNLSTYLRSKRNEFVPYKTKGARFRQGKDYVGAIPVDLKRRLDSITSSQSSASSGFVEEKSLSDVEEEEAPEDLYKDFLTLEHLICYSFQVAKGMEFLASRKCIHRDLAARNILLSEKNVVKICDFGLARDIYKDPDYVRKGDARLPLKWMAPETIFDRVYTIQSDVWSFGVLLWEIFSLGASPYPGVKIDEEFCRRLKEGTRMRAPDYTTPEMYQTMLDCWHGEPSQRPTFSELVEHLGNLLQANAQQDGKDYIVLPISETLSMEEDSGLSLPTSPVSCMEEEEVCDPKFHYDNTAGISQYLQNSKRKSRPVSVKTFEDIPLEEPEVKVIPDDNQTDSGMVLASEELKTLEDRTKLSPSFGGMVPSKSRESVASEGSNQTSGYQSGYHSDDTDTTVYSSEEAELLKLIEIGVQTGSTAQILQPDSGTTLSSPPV
Sequence of RET^V804M (P07949 29-1114 V804M): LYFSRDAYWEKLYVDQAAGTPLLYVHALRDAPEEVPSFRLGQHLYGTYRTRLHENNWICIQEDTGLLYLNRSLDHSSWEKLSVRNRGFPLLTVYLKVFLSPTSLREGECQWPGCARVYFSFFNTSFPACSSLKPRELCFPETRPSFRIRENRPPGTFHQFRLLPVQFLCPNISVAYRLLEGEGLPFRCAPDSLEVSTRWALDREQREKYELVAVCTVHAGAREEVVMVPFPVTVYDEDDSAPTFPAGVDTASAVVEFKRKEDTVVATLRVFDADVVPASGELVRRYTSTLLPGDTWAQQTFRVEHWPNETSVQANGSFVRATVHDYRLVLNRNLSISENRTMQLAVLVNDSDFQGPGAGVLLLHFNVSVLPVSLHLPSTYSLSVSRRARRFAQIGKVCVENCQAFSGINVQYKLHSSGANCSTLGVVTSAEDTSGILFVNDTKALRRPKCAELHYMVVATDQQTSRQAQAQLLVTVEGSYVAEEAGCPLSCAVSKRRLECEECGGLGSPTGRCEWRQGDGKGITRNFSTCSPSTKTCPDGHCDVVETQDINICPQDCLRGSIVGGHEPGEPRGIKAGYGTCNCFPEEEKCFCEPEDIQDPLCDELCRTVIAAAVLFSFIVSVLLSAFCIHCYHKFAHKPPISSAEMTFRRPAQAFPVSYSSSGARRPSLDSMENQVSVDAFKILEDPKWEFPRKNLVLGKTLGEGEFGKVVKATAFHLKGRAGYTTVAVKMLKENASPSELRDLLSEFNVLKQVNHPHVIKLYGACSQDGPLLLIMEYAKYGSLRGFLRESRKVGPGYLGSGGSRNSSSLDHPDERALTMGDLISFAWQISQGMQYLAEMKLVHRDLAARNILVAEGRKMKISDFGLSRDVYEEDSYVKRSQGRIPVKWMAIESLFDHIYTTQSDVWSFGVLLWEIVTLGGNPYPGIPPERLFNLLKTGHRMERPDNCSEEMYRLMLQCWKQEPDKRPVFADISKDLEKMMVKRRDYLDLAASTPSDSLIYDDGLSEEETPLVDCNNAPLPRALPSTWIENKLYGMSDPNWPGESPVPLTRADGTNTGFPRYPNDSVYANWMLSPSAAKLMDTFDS
Sequence of RET (P07949 29-1114): as the sequence (P07949 29-1114 V804M) above, with M776V counted along it
Sequence of BaF3 cell lines expressing KIF5B-RET (P07949 29-1114 limits assumed, stated change not applied): as the sequence (P07949 29-1114 V804M) above, with M776V counted along it
Description for RET^V804M Cell: as §1

`Nc1ncnc2c1c(-c1cc3cccnc3[nH]1)nn2[C@H]1CC[C@H](NC(=O)C2CC2)CC1` [Example 36, N-(trans-4-(4-Amino-3-(1H-pyrrolo[2,3-b]pyridin-2-yl)-1H-pyrazolo[3,4-d]pyrimidin-1-yl)cyclohexyl)cyclopropanecarboxamide] registered an IC50 on KDR of over 30 µM.
On to `Nc1ncnc2c1c(-c1[nH]c3ncccc3c1Cl)nn2CC(=O)O` [2-(4-amino-3-(3-chloro-1H-pyrrolo[2,3-b]pyridin-2-yl)-1H-pyrazolo[3,4-d]pyrimidin-1-yl)acetic acid], for which, at RET, the “desired activity in the assays described in the Examples section” value (“desired activity in the assays described” below) is reported as “did not exhibit the desired activity”.
For `CC(C)CCn1nc(-c2[nH]c3ccccc3c2Cl)c2c(N)ncnc21` [3-(3-Chloro-1H-indol-2-yl)-1-isopentyl-1H-pyrazolo[3,4-d]pyrimidin-4-amine], the “desired activity in the assays described” value on RET was “did not exhibit the desired activity”.
`CS(=O)(=O)N1CCC(n2nc(-c3[nH]c4ccccc4c3Cl)c3c(N)ncnc32)CC1` [Example 4, 3-(3-Chloro-1H-indol-2-yl)-1-(1-methylsulfonyl-4-piperidyl)pyrazolo[3,4-d]pyrimidin-4-amine] returned an IC50 against KDR of over 30 µM.
Still for that read-out and setting: the value for `CN(C)C1CCN(CCn2nc(-c3[nH]c4ncccc4c3Cl)c3c(N)ncnc32)CC1` [Example 77, 3-(3-Chloro-1H-pyrrolo[2,3-b]pyridin-2-yl)-1-(2-(4-(dimethylamino)piperidin-1-yl)ethyl)-1H-pyrazolo[3,4-d]pyrimidin-4-amine] was over 30 µM.
On to `Nc1ncnc2c1c(-c1[nH]c3ncccc3c1Cl)nn2C1CCCCC1` [Example 67, 3-(3-Chloro-1H-pyrrolo[2,3-b]pyridin-2-yl)-1-cyclohexyl-pyrazolo[3,4-d]pyrimidin-4-amine], for which the IC50 was over 30 µM against RET^V804M, 68.7 nM in test [1] and over 30 µM at RET.
Turning to `CC(C)n1nc(-c2cc3ccccc3[nH]2)c2c(N)ncnc21` [Example 44, 3-(1H-Indol-2-yl)-1-isopropyl-pyrazolo[3,4-d]pyrimidin-4-amine], the IC50 against RET^V804M is 1.87 µM; in the test with RET^V804M Cell it was 1470 nM; at KDR, 4.57 µM; in test [2], 3.63 µM; in test [3], 2770 nM; in test [1] (BaF3 cells expressing KIF5B-RET, 48 hours, CellTiter-Glo), 83.6 nM. At RET, this molecule displayed an IC50 of 0.0187 µM.
`Nc1ncnc2c1c(-c1[nH]c3ccccc3c1Cl)nn2CC1CCNC1` (centres unmarked) [3-(3-chloro-1H-indol-2-yl)-1-(pyrrolidin-3-ylmethyl)-1H-pyrazolo[3,4-d]pyrimidin-4-amine]: the “desired activity in the assays described” value at RET is listed as “did not exhibit the desired activity”.
Consider `Cn1nc(-c2[nH]c3ncccc3c2Cl)c2c(N)ncnc21` [Example 65, 3-(3-Chloro-1H-pyrrolo[2,3-b]pyridin-2-yl)-1-methyl-pyrazolo[3,4-d]pyrimidin-4-amine], for which the IC50 was over 30 µM against RET^V804M, 1010 nM in test [1] and over 30 µM against RET. The “desired activity in the assays described” value on RET is on record as “did not exhibit the desired activity”.
As to `CC(C)(C)n1nc(-c2cc3ncccc3[nH]2)c2c(N)ncnc21` [1-tert-butyl-3-(1H-pyrrolo[3,2-b]pyridin-2-yl)pyrazolo[3,4-d]pyrimidin-4-amine], at RET, the “desired activity in the assays described” value is “did not exhibit the desired activity”.
`CC(C)(C)OC(=O)N[C@H]1CC[C@@H](n2nc(-c3cc4cccnc4[nH]3)c3c(N)ncnc32)CC1` [Example 27, tert-Butyl N-[cis-4-(4-amino-3-{1H-pyrrolo[2,3-b]pyridin-2-yl}-1H-pyrazolo[3,4-d]pyrimidin-1-yl)cyclohexyl]carbamate]: on KDR, the IC50 was over 30 µM.
The same measure, in the same setting: the figure for `CC(C)(C)OC(=O)N[C@H]1CC[C@H](n2nc(-c3cc4cccnc4[nH]3)c3c(N)ncnc32)CC1` [Example 28, tert-Butyl (trans-4-(4-amino-3-(1H-pyrrolo[2,3-b]pyridin-2-yl)-1H-pyrazolo[3,4-d]pyrimidin-1-yl)cyclohexyl)carbamate] is over 30 µM.

(Values after patent US10844067B2, “Heterocyclic compounds as RET kinase inhibitors” (Cancer Research Technology Limited, priority 2016, dated 2020).)
